Measurements reported in ChEMBL document CHEMBL1151828, “Screening of flavonoids as candidate antibiotics against Enterococcus faecalis” (J Nat Prod, 2009).
≈ marks a conversion by molar mass, not a printed value.

How the values were obtained:
Enterococcus faecalis [1] = test: Antimicrobial activity against Enterococcus faecalis after 20 hrs by broth microdilution method; type: functional
Enterococcus faecalis [2] = test: Antimicrobial activity against vancomycin-resistant Enterococcus faecalis after 20 hrs by broth microdilution method; type: functional
[3] = Solubility at 1 mM; type: physicochemical; details: 1000 µM

SMILES | MIC (Enterococcus faecalis [1]) [µg/mL] | MIC (Enterococcus faecalis [2]) [µg/mL] | solubility [3]
O=C1C[C@@H](c2ccc(O)cc2)Oc2cc(O)cc(O)c21 [NARINGENIN] | 256 (≈ 940 µM) | 512 (≈ 1880 µM) | 
O=C1C[C@@H](c2ccc(O)c(O)c2)Oc2cc(O)cc(O)c21 [ERIODICTYOL] | 256 (≈ 888 µM) | 512 (≈ 1780 µM) | 
O=C1C[C@@H](c2ccccc2)Oc2cc(O)cc(O)c21 [PINOCEMBRIN] | > 512 |  | 
O=C1CC(c2cccc(O)c2)Oc2ccccc21 (centres undefined) [3'-HYDROXYFLAVANONE] | 256 (≈ 1070 µM) | 256 (≈ 1070 µM) | 
O=C1CC(c2ccccc2O)Oc2ccc(O)cc21 (centres undefined) | 256 (≈ 999 µM) | 256 (≈ 999 µM) | 
O=C1c2ccc(O)cc2OC(c2cc(O)c(O)c(O)c2)C1O (centres undefined) [DIHYDROBINETIN] | 256 (≈ 841 µM) | > 512 | Insoluble
O=C1c2c(O)cc(O)cc2O[C@H](c2ccc(O)c(O)c2)[C@H]1O [(+)-TAXIFOLIN] | 128 (≈ 421 µM) | 512 (≈ 1680 µM) | 
